SMILES strings stand for the structures.

Here are results for five compounds from US20230226184A1, “IMPROVEMENTS IN ULTRASOUND-MEDIATED THERAPY” (Bracco Suisse SA, priority 2020, published 2023).

Assay [1] has as its system mesenteric rat microcirculation. The experiment in a line: Vasospasm inhibition by vasospasm inhibitor pre-treatment before US-MV (Examples 4, 7). Particulars: for ability to inhibit the vasospasm: Example 7, conditions of Table 6 (P02, US 400 kPa, 5 min); for Vasospasm occurrence (on 3 animals/condition) / Vasospasm occurrence, percent: P02 1.5E+09 MV/kg, 1 bolus, US 400 kPa, 1 ms ON/10 s OFF, 5 min. The assay is classed as in vivo. As to the method:
The model used for these experiments was the mesenteric rat microcirculation. Briefly, anesthetized animals were prepared to allow the visualization of an intestinal loop. The injections were made in the tail vein.
Rats were placed under the inverted microscope (Olympus® X2) equipped with a X20 objectives (mag final: 200). A numeric camera, driven by an open source software, acquired and recorded 30 s video at each time points required, in accordance with the protocol.
US treatment was delivered by an experimental single element transducer (unfocused, plane, 1.5 MHz). Table 1 reports the tested US parameters, including the pulse scheme, the acoustic pressure and the duration of US application, for each protocol. The transducer was focus on the optical objective and placed to respect a working distance of 5 cm.
Image sequences were acquired, before, during and after treatment. Additional acquisitions could be performed every 5 min until 40 min after the initiation of US exposure to monitor the vasospasm resolution.
The model used for these experiments was the mesenteric rat microcirculation. The model and animal preparation were described in example 2.
This study aimed at the evaluation of the inhibition of vasospasm induced by a vasospasm inhibitor compound, in particular the dihydropiridine calcium channel blocker nimodipine.
For this purpose, the rats received a pre-treatment with nimodipine, 10 mins before the combined treatment of gas-filled microvesicles and ultrasound for therapy.
Nimodipine (Sigma Aldrich, Switzerland) powder was first diluted in DMSO (40 mg/ml); the injected dose (1.4 mg/kg) was extemporary prepared in NaCl 0.9% and injected 10 min before the treatment.
The treatment parameters were chosen in accordance with the previous studies to obtain the generation of a vasospasm. P01 formulation was administered for this study.
This study aimed at assessing the efficacy of different pharmacological classes of vasospasm inhibitor drugs currently used in clinic on the vasospasm inhibition.
The duration between pre-treatment and injection of microvesicles and ultrasound treatment was in accordance with the pharmacocinetik pharmacokinetics and pharmacodynamics of each drug.

A further assay relates to NMU rat tumor model. The experiment in a line: Extravasation of Cy5.5-labeled 150 kDa-dextran in tumour after US-MV treatment (Example 1). The assay is classed as in vivo. As to the method: The model used was the NMU rat tumor model. Pre-pubescent rats (female, Sprague Dawley) received a single intra-peritoneal injection of 50 mg/kg of NMU (N-nitroso-N-methylurea, Sigma, Switzerland). Rats developing tumours were enrolled in protocol. In the NMU model, animals can develop several tumours allowing to have tumors receiving microvesicles and ultrasound for therapy; and tumors without ultrasound insonation (called untreated) in the same animal. The rats were anesthetized and placed on dorsal decubitus. A catheter was placed in the tail vein to inject drugs and microvesicles. The US treatment transducer was placed at 5 cm of the tumor (spaced by a water tank). […] To evaluate the efficiency of molecular extravasation, a 150 kDa-dextran labeled with Cy©5.5 fluorophore was injected just before therapeutic treatment with ultrasounds and microvesicles. […] Tumors were then harvested from sacrificed animals; the fluorescence was quantified on image acquired ex vivo (Fluobeam® 700). The fluorescence was quantified by ImageJ software.

Another assay deals with mouse DA3 tumor model. Kind of assay: Tumour perfusion during US-MV treatment followed by contrast echography (Example 5). The conditions noted are these: Nimodipine 1.4 mg/kg iv 10 min before; P01 1.3E+09 MV/kg, 4 boluses; US 800 kPa, 1 ms ON/15 s OFF, 25 min. The assay is classed as in vivo. As to the method:
The mouse DA3 tumor model was used in these studies. The US treatment was delivered by the Verasonic® system (probe P4-2). The probe was placed at 5 cm from the tumor (spaced by a water tank, filled with degassed water). […] The perfusion of each tumor was followed by the echographic signal of microvesicles (Verasonic® system). The signal was recorded and post-analysed with Vuebox® software. […] The expression “replenishment time” indicates the time required to supply the area under the ultrasound beam with the vessel with fresh gas-filled microvesicles, after the substantial destruction of MV caused by each US pulse. The expression “MV destruction” corresponds to the loss of integrity or structure of MV caused by acoustic activation of MV by US. This can be provoked for example by MV collapse or gas dissolution and monitored by acoustic signal follow up. All parameters relative to microvesicles and ultrasound treatment were fixed (see Table 4). The therapeutic insonation parameters were chosen in accordance with the previous studies, to obtain a vascular permeabilization in the DA3 tumor.

In the next assay the test system is NMU tumor. Kind of assay: Tumour perfusion during US-MV treatment followed by contrast echography (Example 6). The conditions noted are these: Nimodipine 1.4 mg/kg iv 10 min before; P02 1.2E+09 MV/kg, 4 boluses; US 600 kPa, 1 ms ON/15 s OFF, 20 min. The assay is classed as in vivo, rat. As to the method:
Pre-pubescent rats (female, Sprague Dawley) received a single intra-peritoneal injection of 50 mg/kg of NMU (N-nitroso-N-methylurea, Sigma, Switzerland). […] Serial bolus injections of gas-filled microvesicles (as specified in Table 5) were performed and the tumor was submitted to therapeutic insonation (frequency, acoustic pressure and pulse characteristics as specified in the subsequent examples). The perfusion of tumor during treatment was assessed as described in Example 5. All parameters relative to microvesicles and ultrasound treatment were fixed (see Table 5). The therapeutic insonation parameters were chosen in accordance with the previous studies, to obtain a vascular permeabilization in the NMU tumor.

The test system of assay [2] is mesenteric rat microcirculation. The experiment in a line: Vasospasm inhibition by vasospasm inhibitor pre-treatment before US-MV (Examples 4, 7). The assay is classed as in vivo. The conditions noted are these: Nimodipine 1.4 mg/kg, pre-treatment time 10 min; P02 1.5E+09 MV/kg, 1 bolus; US 400 kPa, 1 ms ON/10 s OFF, 5 min.
The mark [3] stands for this setting: Mg^2+ 300 mM, pre-treatment time 0 min.
Setting [4] is: Prazosin 0.5 mg/kg, pre-treatment time 10 min.
[5] abbreviates: Trinitrine (dose not given), pre-treatment time 1 min.

In the case of `C[C@H](CS)C(=O)N1CCC[C@H]1C(=O)O` [Captoprill, Captopril], the “ability to inhibit the vasospasm” value in assay [1] is recorded as “did not show any relevant inhibiting activity”.
Take `[Mg+2]` [Mg^2+, magnesium]: the “ability to inhibit the vasospasm” value in assay [1] is reported as “good ability to inhibit the vasospasm”. Also, in assay [1] (setting [3]), the “Vasospasm occurrence (on 3 animals/condition)” value is recorded as 0/3 and the “Vasospasm occurrence, percent” value is 0%.
Regarding `COCCOC(=O)C1=C(C)NC(C)=C(C(=O)OC(C)C)C1c1cccc([N+](=O)[O-])c1` (stereo not shown) [Nimodipine], the “mean fluorescence value (Cy5.5 dextran in tumour, ex vivo)” value with NMU rat tumor model (fifth group: VI pre-administration (Nimodipine 1.4 mg/kg, 10 min before) then US-MV, 600 kPa, 1 ms ON/10 s OFF, 20 min) is given as 2060 RFU/px/ms. In the assay on NMU rat tumor model (third group: VI+MV, no US, Nimodipine 1.4 mg/kg 10 min before, MV P02 or Definity 8 μl gas/kg in 4 boluses), the “mean fluorescence signal (Cy5.5 dextran in tumour, ex vivo)” value is given as 1030 RFU/px/ms. In addition, the “Decrease of perfusion in tumor, percent” value in the assay on mouse DA3 tumor model was 0%. For the same compound, the “Decrease of perfusion in tumor, percent” value in the assay with NMU tumor is on record as “(100%)”. In assay [2], the “Vasospasm occurrence (on 3 animals/condition)” value is 0/3 and the “Vasospasm occurrence, percent” value was 100%.
Consider `COc1cc2nc(N3CCN(C(=O)c4ccco4)CC3)nc(N)c2cc1OC` [Prazosin], for which the “ability to inhibit the vasospasm” value in assay [1] is listed as “lower ability”. For the same compound, in assay [1] (setting [4]), the “Vasospasm occurrence (on 3 animals/condition)” value was 1/3 and the “Vasospasm occurrence, percent” value came out at 33%.
On to `O=[N+]([O-])OCC(CO[N+](=O)[O-])O[N+](=O)[O-]` [Trinitrine], for which the “ability to inhibit the vasospasm” value in assay [1] is “good ability to inhibit the vasospasm”. In assay [1] (setting [5]), the “Vasospasm occurrence (on 3 animals/condition)” value is given as 0/3 and the “Vasospasm occurrence, percent” value is listed as “(0%)”.
